Values quoted from earlier work as cited in patent publication US20060165671A1, “Novel nutraceutical compositions comprising epigallocatechin gallate” (priority 2002, published 2006).

Legend:
[1] = after CoQ10 supplementation, several studies
[2] = patients with type 2
[3] = glucose intolerant and non-insulin dependent diabetic animals
[4] = system: muscle and adipose cells in culture
[5] = system: pre-adipocyte cells; conditions: compared to the specific PPAR-γ agonist ciglitazone
[6] = system: rat primary hepatocytes; conditions: concentrations from about 10 to about 100 μM

For COC1=C(OC)C(=O)C(C/C=C(\C)CC/C=C(\C)CC/C=C(\C)CC/C=C(\C)CC/C=C(\C)CC/C=C(\C)CC/C=C(\C)CC/C=C(\C)CC/C=C(\C)CCC=C(C)C)=C(C)C1=O [CoQ10, 6-Decaprenyl-2,3-dimethoxy-5-methyl-1,4-benzoquinone], the LDL oxidation [1] is listed as “reduced”.
For “1,2-dithiolane-3-pentaenoic acid [Lipoic acid]”, the glucose disposal [2] is given as “improves glucose disposal”, the “basal and insulin-stimulated glucose uptake by skeletal muscles” value [3] is given as “raised” and the glucose transport [4] is given as “stimulates glucose transport”.
In the case of CC(C)CCCC(C)CCCC(C)CCCC(C)CC(=O)O (stereo not drawn) [Phytanic acid, 3,7,11,15-tetramethylhexadecanoic acid], the “differentiation of pre-adipocyte cells into mature adipocytes” value [5] is listed as “only minor effects” and the uptake of glucose [6] is listed as “enhances uptake of glucose”.
